These results are taken from patent US5561112A, “Pseudopeptide isosteres of gly-asp and their use as antithrombic agents” (Sandoz Ltd., priority 1992, dated 1996).

Read-outs that look alike come from different tables or passages of the source.

The subject of test [1] is human blood platelets. Nature of the test: Inhibition of the ADP-induced aggregation of human blood platelets in the presence of fibrinogen (PA). Format: cell-based. The following applies: washed human platelets, stimulated with ADP in the presence of fibrinogen, aggregometer. Here is the method:
b) Inhibition of the ADP-induced aggregation of human blood platelets in the presence of fibrinogen: Blood platelets are isolated from fresh whole-blood by centrifugation, and washed. The washed platelets are resuspended in the presence of PGI2 and apyrase and stimulated with ADP ([…]) in the presence of fibrinogen. The ability of the platelets to aggregate in the presence or absence of inhibitors is quantified using an aggregometer.
The inhibition of the ADP-induced platelet aggregation is brought about by compounds of formula I in a range of IC50 (concentration of compounds of formula I at which 50% of platelet aggregation is inhibited) of between 20 and 100 nM.
(§1) The compounds of Examples 1 to 8 are tested to determine their IC50 values in the inhibition of the fibrinogen GPIIb/IIIa binding (FB) and inhibition of the ADP-induced platelet aggregation (PA) test procedures described above.

Test [2] concerns the target T1, GP IIb/IIIa (Homo sapiens, UniProt P05106+P08514).
T1 construct: GP IIb/IIIa is isolated from membranes of human blood platelets by triton X-100 extraction; from tissue; host or cells: human blood platelets (membranes)
T1 sequence (P08514 32-887 limits assumed): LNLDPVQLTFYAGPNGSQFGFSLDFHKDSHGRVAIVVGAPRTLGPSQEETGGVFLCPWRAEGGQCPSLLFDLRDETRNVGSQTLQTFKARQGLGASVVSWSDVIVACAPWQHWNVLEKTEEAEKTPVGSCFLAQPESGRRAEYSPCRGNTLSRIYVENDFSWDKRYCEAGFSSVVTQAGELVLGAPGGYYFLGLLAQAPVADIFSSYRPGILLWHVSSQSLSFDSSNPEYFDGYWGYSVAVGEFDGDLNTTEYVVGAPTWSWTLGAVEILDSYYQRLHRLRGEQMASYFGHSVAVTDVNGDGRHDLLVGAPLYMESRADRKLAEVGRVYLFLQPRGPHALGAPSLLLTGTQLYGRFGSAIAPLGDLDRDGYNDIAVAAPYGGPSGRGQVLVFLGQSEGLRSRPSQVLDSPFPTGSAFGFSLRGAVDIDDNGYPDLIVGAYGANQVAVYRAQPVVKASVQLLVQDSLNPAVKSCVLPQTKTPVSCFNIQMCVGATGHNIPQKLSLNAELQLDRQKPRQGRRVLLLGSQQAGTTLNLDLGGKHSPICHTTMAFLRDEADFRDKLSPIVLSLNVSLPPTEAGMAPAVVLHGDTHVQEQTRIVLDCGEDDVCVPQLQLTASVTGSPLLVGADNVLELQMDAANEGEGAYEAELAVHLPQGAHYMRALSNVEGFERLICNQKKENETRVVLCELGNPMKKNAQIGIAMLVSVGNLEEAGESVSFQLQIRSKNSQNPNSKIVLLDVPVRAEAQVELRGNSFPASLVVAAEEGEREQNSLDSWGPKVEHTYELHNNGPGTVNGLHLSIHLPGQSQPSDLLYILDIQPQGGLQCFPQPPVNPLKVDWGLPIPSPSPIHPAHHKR
T1 sequence (P05106 27-788): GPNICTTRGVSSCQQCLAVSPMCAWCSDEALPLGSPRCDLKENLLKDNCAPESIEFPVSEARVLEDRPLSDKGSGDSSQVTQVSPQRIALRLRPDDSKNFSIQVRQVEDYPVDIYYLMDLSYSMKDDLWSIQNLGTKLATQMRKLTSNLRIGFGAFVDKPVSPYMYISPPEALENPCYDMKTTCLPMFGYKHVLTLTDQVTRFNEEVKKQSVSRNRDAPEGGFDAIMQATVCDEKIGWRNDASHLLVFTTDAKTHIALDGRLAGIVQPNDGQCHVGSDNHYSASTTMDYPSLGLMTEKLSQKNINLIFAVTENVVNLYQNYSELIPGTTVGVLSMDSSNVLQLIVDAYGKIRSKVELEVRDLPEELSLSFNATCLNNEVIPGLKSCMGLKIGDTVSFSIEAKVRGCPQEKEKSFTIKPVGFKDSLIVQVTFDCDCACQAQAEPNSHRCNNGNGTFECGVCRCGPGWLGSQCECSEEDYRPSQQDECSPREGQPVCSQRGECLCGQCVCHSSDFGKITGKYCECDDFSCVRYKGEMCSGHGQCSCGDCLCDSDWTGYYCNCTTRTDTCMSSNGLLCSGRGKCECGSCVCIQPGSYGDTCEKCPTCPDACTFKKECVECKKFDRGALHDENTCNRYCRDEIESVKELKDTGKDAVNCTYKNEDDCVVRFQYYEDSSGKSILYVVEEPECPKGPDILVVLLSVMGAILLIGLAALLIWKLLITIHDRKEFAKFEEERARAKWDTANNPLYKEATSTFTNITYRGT
Nature of the test: Inhibition of binding of fibrinogen to isolated and immobilized GP IIb/IIIa (FB). The following applies: biotin-labelled fibrinogen; GP IIb/IIIa isolated from human blood platelet membranes, bonded to microtitre plates; read-out: FB: IC50 (inhibition of the fibrinogen GPIIb/IIIa binding).
Excerpt: a) Inhibition of binding of fibrinogen to isolated and immobilized GP IIb/IIIa: GP IIb/IIIa is isolated from membranes of human blood platelets by triton X-100 extraction and purified by chromatography on ion exchangers and by gel filtration. The receptor protein thus obtained is bonded to microtitre plates. The inhibition of the binding of biotin-labelled fibrinogen to the receptor in the presence of inhibitor is quantified.
The compounds of formula I effect an inhibition of the fibrinogen GP IIb/IIIa binding in a range of IC50 (concentration of compounds of formula I which reduce the binding of fibrinogen to the receptor by 50%) of between 0.5 and 20 nM.
as §1

Where [3] appears, read: read-out: PA: IC50 (inhibition of the ADP-induced platelet aggregation).

On to `Cc1ccc(S(=O)(=O)N[C@@H](CCCNC(=O)Cc2ccc(C(=N)N)cc2)CC(=O)O)cc1` [Example 1, (S)-3-(N-tosylamino)-6-[N-(p-amidinophenylacetyl)amino]hexanoic acid], for which the figures for the IC50 in test [1] (Platelet) and in test [2] were 640 nM and 7.6 nM, respectively.
As to `CC(C)CC(=O)N[C@@H](CCCNC(=O)Cc1ccc(C(=N)N)cc1)CC(=O)O` [Example 2, (S)-3-[N-(3-methylbutyryl)amino]-6-[N-(p-amidinophenylacetyl)amino]hexanoicacid], the figures for the IC50 in test [1] (Platelet) and in test [2] were 100 nM and 1.7 nM, respectively.
For `COc1ccc(CCC(=O)N[C@@H](CCCNC(=O)Cc2ccc(C(=N)N)cc2)CC(=O)O)cc1` [Example 3, (S)-3-N-[3-(p-methoxyphenyl)propionyl]amino-6-[N-(p-amidinophenylacetyl)amino]hexanoic acid], the IC50 is 31 nM in test [1] (setting [3]) and 1.1 nM in test [2].
On to `N=C(N)c1ccc(CC(=O)NCCC[C@@H](CC(=O)O)NC(=O)CC23CC4CC(CC(C4)C2)C3)cc1` [Example 4, (S)-3-[N-(adamant-1-ylacetyl)amino]-6-[N-(p-amidinophenylacetyl)amino]hexanoic acid], for which the figures for the IC50 in test [1] (Platelet) and in test [2] were 67 nM and 2.2 nM, respectively.
Take `N=C(N)c1ccc(CC(=O)NCCC[C@@H](CC(=O)O)NC(=O)CCC23CC4CC(CC(C4)C2)C3)cc1` [Example 5, (S)-3-[N-(3-adamant-1-ylpropionyl)amino]-6-[N-(p-amidinophenylacetyl)amino]hexanoic acid]: the values for the IC50 in test [1] (Platelet) and in test [2] were 61 nM and 0.4 nM, respectively.
`CC(C)CC(=O)N[C@@H](CCCCNC(=O)c1ccc(C(=N)N)cc1)CC(=O)O` [Example 6, (S)-3-(N-(3-methylbutyryl)amino]-7-[N-(p-amidinobenzoyl)amino]heptanoic acid]: the figures for the IC50 in test [1] (Platelet) and in test [2] were 15 nM and 0.5 nM, respectively.
Take `COc1ccc(CCC(=O)N[C@@H]2CC(=O)O[C@H](CNC(=O)Cc3ccc(C(=N)N)cc3)C2)cc1` [Example 7, (3S,5S)-6-(4-amidinophenylacetylamino)-5-hydroxy-3-(4-methoxyphenylpropionylamino)-hexanoic acid-δ-lactone]: the IC50 in test [1] (setting [3]) stood at 80 nM; in test [2] it was 0.5 nM.
`CC(C)CC(=O)N[C@@H]1CC(=O)O[C@H](CNC(=O)Cc2ccc(C(=N)N)cc2)C1` [Example 8, (3S,5S)-6-(4-amidino-phenylacetylamino)-5-hydroxy-3-(3-methyl-butyrylamino)-hexanoic acid-δ-lactone]: the results for the IC50 in test [1] (setting [3]) and in test [2] were 110 nM and 0.9 nM, respectively.
